In patent US20060210500A1, “Formulations” (MERCK PATENT GMBH, priority 2003, published 2006):

Tests used:
[1] = over the entire pH range; cited from earlier work
[2] = system: Aspergillus niger ATCC 16404; experiment: challenge test, germ count by Agar plates method; type: cell-based; conditions: 8% aqueous suspension
Method: (§1) A standard procedure to measure the anti-microbial activity of substances was used (challenge tests). A suspension of test organisms (10^5 to 10^6 germs/ml) is inoculated into a recipient containing already the substance to be tested. Samples of the inoculated suspension are taken and the number of germs is measured thanks to the Agar plates method. Germ counts is performed at t=0, t=24 h after the inoculation, t=48 h after the inoculation, t=7 days after the inoculation, t=14 days after the inoculation.
(§2) Sterile water containing 8% w/w of treated and untreated carriers were each investigated.

[3] = system: Candida albicans ATCC 10231; experiment: challenge test, germ count by Agar plates method; type: cell-based; conditions: 8% aqueous suspension
Method: as §1, §2

[4] = system: Escheria coli ATCC8739; experiment: challenge test, germ count by Agar plates method; type: cell-based; conditions: 8% aqueous suspension
Method: as §1, §2

[5] = system: Pseudomonas aeruginosa ATCC 9027; experiment: challenge test, germ count by Agar plates method; type: cell-based; conditions: 8% aqueous suspension
Method: as §1, §2

[6] = system: Staphylococcus aureus ATCC 6538; experiment: challenge test, germ count by Agar plates method; type: cell-based; conditions: 8% aqueous suspension
Method: as §1, §2

For `O=c1c(O)c(-c2ccc(O)c(O)c2)oc2cc(O)cc(O)c12` [Quercetin, 3,3′,4′,5,7-pentahydroxyflavone], the antioxidant action [1] is given as “the greatest activity amongst the structures investigated”.

With silver oxide [0.02% Ag2O] the “Germs Number/ml after 24 h” value ([2]; 24 h after inoculation) was 3.5 · 10^5 germs/ml, the “Germs Number/ml after 48 h” value ([2]; 48 h after inoculation) was 1.6 · 10^5 germs/ml and the “Germs Number/ml after 7 d” value ([2]; 7 d after inoculation) was 1.0 · 10^5 germs/ml. The “Germs Number/ml after 14 d” value ([2]; 14 d after inoculation) was 2.2 · 10^4 germs/ml, the “Germs Number/ml after Start” value ([2]; t=0) was 4.5 · 10^5 germs/ml and the “Germs Number/ml after 24 h” value ([3]; 24 h after inoculation) was 8.3 · 10^2 germs/ml. For the same compound, the “Germs Number/ml after 48 h” value ([3]; 48 h after inoculation) was 0 germs/ml, the “Germs Number/ml after 7 d” value ([3]; 7 d after inoculation) was 0 germs/ml and the “Germs Number/ml after 14 d” value ([3]; 14 d after inoculation) was 0 germs/ml. The “Germs Number/ml after Start” value ([3]; t=0) was 9.0 · 10^2 germs/ml, the “Germs Number/ml after 24 h” value ([4]; 24 h after inoculation) was 0 germs/ml and the “Germs Number/ml after 48 h” value ([4]; 48 h after inoculation) was 0 germs/ml. The “Germs Number/ml after 7 d” value ([4]; 7 d after inoculation) was 0 germs/ml, the “Germs Number/ml after 14 d” value ([4]; 14 d after inoculation) was 0 germs/ml and the “Germs Number/ml after Start” value ([4]; t=0) was 2.0 · 10^6 germs/ml. For the same compound, the “Germs Number/ml after 24 h” value ([5]; 24 h after inoculation) was 0 germs/ml, the “Germs Number/ml after 48 h” value ([5]; 48 h after inoculation) was 0 germs/ml and the “Germs Number/ml after 7 d” value ([5]; 7 d after inoculation) was 0 germs/ml. The “Germs Number/ml after 14 d” value ([5]; 14 d after inoculation) was 0 germs/ml, the “Germs Number/ml after Start” value ([5]; t=0) was 2.2 · 10^5 germs/ml and the “Germs Number/ml after 24 h” value ([6]; 24 h after inoculation) was 0 germs/ml. For the same compound, the “Germs Number/ml after 48 h” value ([6]; 48 h after inoculation) was 0 germs/ml, the “Germs Number/ml after 14 d” value ([6]; 14 d after inoculation) was 0 germs/ml and the “Germs Number/ml after Start” value ([6]; t=0) was 2.7 · 10^6 germs/ml.
